Experimental data taken from patent US9120791B2, “Indolizine compounds, a process for their preparation and pharmaceutical compositions containing them” (LES LABORATOIRES SERVIER, priority 2012, dated 2015).
Where a name gives a salt, the structure may show the parent alone. Read-outs that look alike come from different tables or passages of the source.

What was measured:
Bcl-2 protein = Bcl-2 protein (Homo sapiens (Human), UniProt P10415); assay: Inhibition of Bcl-2 by the fluorescence polarisation technique; assay type: binding; conditions: read-out: IC50 (nM) Bcl-2 FP
Description: The fluorescence polarisation tests were carried out on microplates (384 wells). […] After incubation for 2 hours, the fluorescence polarisation is measured.

[1] = system: RS4;11 leukaemia tumour line; assay: In vitro cytotoxicity (Microculture Tetrazolium Assay, 48 hours); assay type: cell-based; conditions: RS4;11 cells, 48 hours exposure, MTT, concentration that inhibits cell viability by 50%, read-out: IC50 (nM) MTT RS4
Description: The cytotoxicity studies were carried out on the RS4;11 leukaemia tumour line.
The cells are distributed onto microplates and exposed to the test compounds for 48 hours.

[2] = fluorescence polarisation test, concentration that inhibits fluorescence polarisation by 50%

Bcl-2 protein, sequence (P10415 whole entry): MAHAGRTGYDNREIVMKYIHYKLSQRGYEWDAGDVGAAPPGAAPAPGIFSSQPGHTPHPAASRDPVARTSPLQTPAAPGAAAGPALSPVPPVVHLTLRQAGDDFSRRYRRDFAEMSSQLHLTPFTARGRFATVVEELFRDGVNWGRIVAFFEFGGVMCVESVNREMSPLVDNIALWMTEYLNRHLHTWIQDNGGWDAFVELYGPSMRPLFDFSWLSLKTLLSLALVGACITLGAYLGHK

## C[C@H]1COC[C@H](C)N1C[C@@H]1Cc2ccccc2CN1C(=O)c1cc2c(cc1-c1cc(C(=O)N(c3ccc(O)cc3)c3ccc4c(ccn4C)c3)c3n1CCCC3)OCO2 [Example 17, 3-{6-[((3S)-3-{[(3S,5S)-3,5-Dimethylmorpholinyl]methyl}-3,4-dihydro-2(1H)-isoquinolinyl)carbonyl]-1,3-benzodioxol-5-yl}-N-(4-hydroxyphenyl)-N-(1-methyl-1H-indol-5-yl)-5,6,7,8-tetrahydro-1-indolizine carboxamide hydrochloride]
Bcl-2 protein; [2]
  IC50: 81 nM
[1]
  IC50: 120 nM

## N#Cc1cccc(N(C(=O)c2cc(-c3cc(Cl)ccc3C(=O)N3Cc4ccccc4C[C@H]3CN3CCOCC3)n3c2CCCC3)c2ccc(O)cc2)c1 [Example 119, 3-(5-Chloro-2-{[(3S)-3-(morpholin-4-ylmethyl)-3,4-dihydroisoquinolin-2(1H)-yl]carbonyl}phenyl)-N-(3-cyanophenyl)-N-(4-hydroxyphenyl)-5,6,7,8-tetrahydroindolizine-1-carboxamide hydrochloride]
Bcl-2 protein; [2]
  IC50: 9 nM
[1]; Homo sapiens
  IC50: 31.6 nM

## O=C(c1cc(-c2cc(Cl)ccc2C(=O)N2Cc3ccccc3C[C@H]2CN2CCOCC2)n2c1CCCC2)N(c1ccc(O)cc1)c1ccccc1F [Example 115, 3-(5-Chloro-2-{[(3S)-3-(morpholin-4-ylmethyl)-3,4-dihydroisoquinolin-2(1H)-yl]carbonyl}phenyl)-N-(2-fluorophenyl)-N-(4-hydroxyphenyl)-5,6,7,8-tetrahydroindolizine-1-carboxamide hydrochloride]
Bcl-2 protein; [2]
  IC50: 8 nM
[1]; Homo sapiens
  IC50: 58.1 nM

## CN1CCc2cc(N(C(=O)c3cc(-c4cc5c(cc4C(=O)N4Cc6ccccc6C[C@H]4CN4CCOCC4)OCO5)n4ccccc34)c3ccc(O)cc3)ccc21 [Example 61, N-(4-Hydroxyphenyl)-N-(1-methyl-2,3-dihydro-1H-indol-5-yl)-3-{6-[((3S)-3-(4-morpholinylmethyl)-3,4-dihydro-2(1H)-isoquinolinyl)carbonyl]-1,3-benzodioxol-5-yl}-1-indolizine carboxamide hydrochloride]
Bcl-2 protein; [2]
  IC50: 22 nM
[1]; Homo sapiens
  IC50: 14.5 nM

## CN1CCN(C[C@@H]2Cc3ccccc3CN2C(=O)c2ccc(Cl)cc2-c2cc(C(=O)N(c3ccc(O)cc3)c3ccc4c(ccn4C)c3)c3ccccn23)CC1 [Example 65, 3-{5-Chloro-2-[((3S)-3-[(4-methyl-1-piperazinyl)methyl]-3,4-dihydro-2(1H)-isoquinolinyl)carbonyl]phenyl}-N-(4-hydroxyphenyl)-N-(1-methyl-1H-indol-5-yl)-1-indolizine carboxamide bis(hydrochloride)]
Bcl-2 protein; [2]
  IC50: 14 nM
[1]; Homo sapiens
  IC50: 9.19 nM

## Cn1ccc2cc(N(C(=O)c3cc(-c4cc(Br)ccc4C(=O)N4Cc5ccccc5C[C@H]4CN4CCOCC4)n4c3CCCC4)c3ccc(O)cc3)ccc21 [Example 18, 3-{5-Bromo-2-[((3S)-3-(4-morpholinylmethyl)-3,4-dihydro-2(1H)-isoquinolinyl)carbonyl]phenyl}-N-(4-hydroxyphenyl)-N-(1-methyl-1H-indol-5-yl)-5,6,7,8-tetrahydro-1-indolizine carboxamide hydrochloride]
Bcl-2 protein; [2]
  IC50: 32 nM
[1]; Homo sapiens
  IC50: 24.9 nM

## O=C(c1cc(-c2cc(Cl)ccc2C(=O)N2Cc3ccccc3C[C@H]2CN2CCOCC2)n2c1COCC2)N(c1ccc(O)cc1)c1ccc2c(c1)CCN2 [Example 79, 6-{5-Chloro-2-[((3S)-3-(4-morpholinylmethyl)-3,4-dihydro-2(1H)-isoquinolinyl)carbonyl]phenyl}-N-(2,3-dihydro-1H-indol-5-yl)-N-(4-hydroxyphenyl)-3,4-dihydro-1H-pyrrolo[2,1-c][1,4]oxazine-8-carboxamide bis(hydrochloride)]
Bcl-2 protein; [2]
  IC50: 31 nM
[1]; Homo sapiens
  IC50: 67.5 nM

## C[C@H]1COCCN1C[C@@H]1Cc2ccccc2CN1C(=O)c1cc2c(cc1-c1cc(C(=O)N(c3ccc(O)cc3)c3ccc4c(ccn4C)c3)c3n1CCCC3)OCO2 [Example 16, N-(4-Hydroxyphenyl)-N-(1-methyl-1H-indol-5-yl)-3-{6-[((3S)-3-{[(3S)-3-methylmorpholinyl]methyl}-3,4-dihydro-2(1H)-isoquinolinyl)carbonyl]-1,3-benzodioxol-5-yl}-5,6,7,8-tetrahydro-1-indolizine carboxamide hydrochloride]
Bcl-2 protein
  IC50: 18 nM
[1]
  IC50: 23.4 nM

## Cn1ccc2cc(N(C(=O)c3cc(-c4cc(C(F)(F)F)ccc4C(=O)N4Cc5ccccc5C[C@H]4CN4CCOCC4)n4c3CCCC4)c3ccc(O)cc3)ccc21 [Example 47, N-(4-Hydroxyphenyl)-N-(1-methyl-1H-indol-5-yl)-3-[2-[((3S)-3-(4-morpholinylmethyl)-3,4-dihydro-2(1H)-isoquinolinyl)carbonyl]-5-(trifluoromethyl)-phenyl]-5,6,7,8-tetrahydro-1-indolizine carboxamide hydrochloride]
Bcl-2 protein; [2]
  IC50: 58 nM
[1]; Homo sapiens
  IC50: 194 nM

## Cn1ccc2cc(N(C(=O)c3cc(-c4cc(Cl)ccc4C(=O)N4Cc5ccccc5C[C@H]4CN4CCOCC4)n4c3COCC4)c3ccc(O)cc3)ccc21 [Example 86, 6-{5-Chloro-2-[((3S)-3-(4-morpholinylmethyl)-3,4-dihydro-2(1H)-isoquinolinyl)carbonyl]phenyl}-N-(4-hydroxyphenyl)-N-(1-methyl-1H-indol-5-yl)-3,4-dihydro-1H-pyrrolo[2,1-c][1,4]oxazine-8-carboxamide hydrochloride]
Bcl-2 protein; [2]
  IC50: 22 nM
[1]; Homo sapiens
  IC50: 29.5 nM

## Cn1ncc2cc(N(C(=O)c3cc(-c4cc5c(cc4C(=O)N4Cc6ccccc6C[C@H]4CN4CCOCC4)OCCO5)n4c3CCCC4)c3ccc(O)cc3)ccc21 [Example 39, N-(4-Hydroxyphenyl)-N-(1-methyl-1H-indazol-5-yl)-3-{7-[((3S)-3-(4-morpholinylmethyl)-3,4-dihydro-2(1H)-isoquinolinyl)carbonyl]-2,3-dihydro-1,4-benzodioxin-6-yl}-5,6,7,8-tetrahydro-1-indolizine carboxamide hydrochloride]
Bcl-2 protein; [2]
  IC50: 16 nM
[1]; Homo sapiens
  IC50: 14.1 nM

## C[C@@H]1COCCN1C[C@@H]1Cc2ccccc2CN1C(=O)c1cc2c(cc1-c1cc(C(=O)N(c3ccc(O)cc3)c3ccc4c(ccn4C)c3)c3n1CCCC3)OCO2 [Example 15, N-(4-Hydroxyphenyl)-N-(1-methyl-1H-indol-5-yl)-3-{6-[((3S)-3-{[(3R)-3-methylmorpholinyl]methyl}-3,4-dihydro-2(1H)-isoquinolinyl)carbonyl]-1,3-benzodioxol-5-yl}-5,6,7,8-tetrahydro-1-indolizine carboxamide hydrochloride]
Bcl-2 protein
  IC50: 17 nM
[1]
  IC50: 20.4 nM

## Cn1ncc2cc(N(C(=O)c3cc(-c4cc(Cl)ccc4C(=O)N4Cc5ccccc5C[C@H]4CN4CCOCC4)n4c3CCCC4)c3ccc(O)cc3)ccc21 [Example 42, 3-{5-Chloro-2-[((3S)-3-(4-morpholinylmethyl)-3,4-dihydro-2(1H)-isoquinolinyl)carbonyl]phenyl}-N-(4-hydroxyphenyl)-N-(1-methyl-1H-indazol-5-yl)-5,6,7,8-tetrahydro-1-indolizine carboxamide hydrochloride]
Bcl-2 protein; [2]
  IC50: 13 nM
[1]; Homo sapiens
  IC50: 53.6 nM

## O=C(c1cc(-c2cc(Cl)ccc2C(=O)N2Cc3ccccc3C[C@H]2CN2CCOCC2)n2c1CCCC2)N(c1ccc(O)cc1)c1ccc2c(c1)CCC2 [Example 29, 3-{5-Chloro-2-[((3S)-3-(4-morpholinylmethyl)-3,4-dihydro-2(1H)-isoquinolinyl)carbonyl]phenyl}-N-(2,3-dihydro-1H-inden-5-yl)-N-(4-hydroxyphenyl)-5,6,7,8-tetrahydro-1-indolizine carboxamide hydrochloride]
Bcl-2 protein; [2]
  IC50: 35 nM
[1]; Homo sapiens
  IC50: 85.5 nM

## Cc1ccc(N(C(=O)c2cc(-c3cc4c(cc3C(=O)N3Cc5ccccc5C[C@H]3CN3CCOCC3)OCO4)n3c2COCC3)c2ccc(O)cc2)cc1F [Example 92, N-(3-Fluoro-4-methylphenyl)-N-(4-hydroxyphenyl)-6-(6-{[(3S)-3-(morpholin-4-ylmethyl)-3,4-dihydroisoquinolin-2(1H)-yl]carbonyl}-1,3-benzodioxol-5-yl)-3,4-dihydro-1H-pyrrolo[2,1-c][1,4]oxazine-8-carboxamide hydrochloride]
Bcl-2 protein; [2]
  IC50: 5 nM
[1]; Homo sapiens
  IC50: 40.2 nM

## CN1CCN(C[C@@H]2Cc3ccccc3CN2C(=O)c2ccc(Cl)cc2-c2cc(C(=O)N(c3ccc(O)cc3)c3ccc4c(ccn4C)c3)c3n2CCCC3)CC1 [Example 30, 3-{5-Chloro-2-[((3S)-3-[(4-methyl-1-piperazinyl)methyl]-3,4-dihydro-2(1H)-isoquinolinyl)carbonyl]phenyl}-N-(4-hydroxyphenyl)-N-(1-methyl-1H-indol-5-yl)-5,6,7,8-tetrahydro-1-indolizine carboxamide bis(hydrochloride)]
Bcl-2 protein; [2]
  IC50: 13 nM
[1]; Homo sapiens
  IC50: 8.59 nM

## COc1ccc(C(=O)N2Cc3ccccc3C[C@H]2CN2CCOCC2)c(-c2cc(C(=O)N(c3ccc(O)cc3)c3ccc4c(cnn4C)c3)c3n2CCCC3)c1 [Example 104, N-(4-Hydroxyphenyl)-3-(5-methoxy-2-{[(3S)-3-(morpholin-4-ylmethyl)-3,4-dihydroisoquinolin-2(1H)-yl]carbonyl}phenyl)-N-(1-methyl-1H-indazol-5-yl)-5,6,7,8-tetrahydroindolizine-1-carboxamide hydrochloride]
Bcl-2 protein; [2]
  IC50: 7 nM
[1]; Homo sapiens
  IC50: 21.6 nM

## CCN(CC)c1ccc(N(C(=O)c2cc(-c3cc(Cl)ccc3C(=O)N3Cc4ccccc4C[C@H]3CN3CCOCC3)n3c2CCCC3)c2ccc(O)cc2)cc1 [Example 28, 3-{5-Chloro-2-[((3S)-3-(4-morpholinylmethyl)-3,4-dihydro-2(1H)-isoquinolinyl)carbonyl]phenyl}-N-[4-(diethylamino)phenyl]-N-(4-hydroxyphenyl)-5,6,7,8-tetrahydro-1-indolizine carboxamide hydrochloride]
Bcl-2 protein; [2]
  IC50: 25 nM
[1]; Homo sapiens
  IC50: 76.1 nM
